Measurements: ChEMBL document CHEMBL1126751, “Studies on quinazolines. 5. 2,3-dihydroimidazo[1,2-c]quinazoline derivatives: a novel class of potent and selective alpha 1-adrenoceptor antagonists and antihypertensive agents” (J Med Chem, 1993)
Blank lines part the entries; values can stand above or below the compound they belong to. The source made the active and inactive calls. No cut-off for these calls is given here.

Key:
[1] = biological target: T1, Adrenergic receptor alpha-2 (Rattus norvegicus, UniProt P22086+P19328+P22909); assay: Binding affinity against alpha-2 adrenergic receptor by measuring displacement of [3H]clonidine from rat brain cortex membranes (in vitro).; format: cell membranes, Membrane
T1 sequence (P22086 whole entry): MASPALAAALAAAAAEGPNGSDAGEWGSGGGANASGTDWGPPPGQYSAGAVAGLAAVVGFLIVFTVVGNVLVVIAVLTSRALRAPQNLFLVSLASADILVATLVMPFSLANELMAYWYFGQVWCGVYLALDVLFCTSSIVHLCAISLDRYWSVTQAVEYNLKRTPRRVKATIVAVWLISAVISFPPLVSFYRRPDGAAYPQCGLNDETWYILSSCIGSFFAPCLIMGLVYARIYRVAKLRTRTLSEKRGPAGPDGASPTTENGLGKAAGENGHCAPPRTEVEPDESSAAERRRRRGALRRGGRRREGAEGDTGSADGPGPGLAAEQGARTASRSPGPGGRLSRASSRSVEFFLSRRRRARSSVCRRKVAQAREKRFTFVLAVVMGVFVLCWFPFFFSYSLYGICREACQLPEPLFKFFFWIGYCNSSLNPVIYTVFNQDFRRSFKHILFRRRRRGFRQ
T1 sequence (P19328 whole entry): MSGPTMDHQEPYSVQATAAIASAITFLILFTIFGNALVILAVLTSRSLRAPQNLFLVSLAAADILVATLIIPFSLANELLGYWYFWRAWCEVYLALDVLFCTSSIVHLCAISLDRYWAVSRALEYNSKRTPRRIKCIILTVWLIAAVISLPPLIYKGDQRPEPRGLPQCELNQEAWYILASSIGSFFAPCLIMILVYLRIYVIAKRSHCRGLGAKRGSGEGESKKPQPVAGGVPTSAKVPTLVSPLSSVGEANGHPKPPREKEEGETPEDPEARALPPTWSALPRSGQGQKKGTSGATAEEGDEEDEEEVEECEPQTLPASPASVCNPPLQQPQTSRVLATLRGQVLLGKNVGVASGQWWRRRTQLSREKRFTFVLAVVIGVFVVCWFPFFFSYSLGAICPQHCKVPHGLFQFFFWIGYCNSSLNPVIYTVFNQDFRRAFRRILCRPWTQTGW
T1 sequence (P22909 whole entry): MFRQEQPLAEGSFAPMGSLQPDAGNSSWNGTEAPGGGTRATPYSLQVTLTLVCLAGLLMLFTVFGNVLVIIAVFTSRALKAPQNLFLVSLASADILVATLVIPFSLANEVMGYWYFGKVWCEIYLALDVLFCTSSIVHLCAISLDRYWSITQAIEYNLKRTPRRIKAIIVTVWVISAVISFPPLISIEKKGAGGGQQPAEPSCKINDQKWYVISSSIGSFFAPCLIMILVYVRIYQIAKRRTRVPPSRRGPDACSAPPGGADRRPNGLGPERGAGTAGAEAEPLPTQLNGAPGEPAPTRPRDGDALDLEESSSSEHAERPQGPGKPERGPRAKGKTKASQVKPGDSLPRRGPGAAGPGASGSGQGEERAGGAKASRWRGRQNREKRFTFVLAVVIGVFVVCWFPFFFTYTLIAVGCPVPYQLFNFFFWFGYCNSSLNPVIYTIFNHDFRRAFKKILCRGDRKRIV

[2] = biological target: T2, Adrenergic receptor alpha-1 (Rattus norvegicus, UniProt P15823+P23944+P43140); assay: Binding affinity against alpha-1 adrenergic receptor by measuring displacement of [3H]prazosin from rat brain cortex membranes (in vitro).; format: cell membranes, Membrane
T2 sequence (P15823 whole entry): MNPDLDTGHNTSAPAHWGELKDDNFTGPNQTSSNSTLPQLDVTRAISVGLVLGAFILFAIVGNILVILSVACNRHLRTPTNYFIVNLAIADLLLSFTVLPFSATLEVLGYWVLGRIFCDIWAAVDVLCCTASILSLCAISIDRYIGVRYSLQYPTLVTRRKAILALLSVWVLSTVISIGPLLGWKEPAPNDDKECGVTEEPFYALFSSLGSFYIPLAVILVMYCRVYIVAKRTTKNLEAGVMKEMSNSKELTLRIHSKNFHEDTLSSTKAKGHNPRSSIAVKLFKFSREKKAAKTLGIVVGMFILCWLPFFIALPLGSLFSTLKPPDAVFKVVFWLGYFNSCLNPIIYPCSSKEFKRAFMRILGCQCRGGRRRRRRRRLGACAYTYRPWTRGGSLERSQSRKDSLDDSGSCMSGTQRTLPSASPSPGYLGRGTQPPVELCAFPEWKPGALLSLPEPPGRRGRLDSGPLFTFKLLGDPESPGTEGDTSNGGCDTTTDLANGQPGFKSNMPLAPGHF
T2 sequence (P23944 whole entry): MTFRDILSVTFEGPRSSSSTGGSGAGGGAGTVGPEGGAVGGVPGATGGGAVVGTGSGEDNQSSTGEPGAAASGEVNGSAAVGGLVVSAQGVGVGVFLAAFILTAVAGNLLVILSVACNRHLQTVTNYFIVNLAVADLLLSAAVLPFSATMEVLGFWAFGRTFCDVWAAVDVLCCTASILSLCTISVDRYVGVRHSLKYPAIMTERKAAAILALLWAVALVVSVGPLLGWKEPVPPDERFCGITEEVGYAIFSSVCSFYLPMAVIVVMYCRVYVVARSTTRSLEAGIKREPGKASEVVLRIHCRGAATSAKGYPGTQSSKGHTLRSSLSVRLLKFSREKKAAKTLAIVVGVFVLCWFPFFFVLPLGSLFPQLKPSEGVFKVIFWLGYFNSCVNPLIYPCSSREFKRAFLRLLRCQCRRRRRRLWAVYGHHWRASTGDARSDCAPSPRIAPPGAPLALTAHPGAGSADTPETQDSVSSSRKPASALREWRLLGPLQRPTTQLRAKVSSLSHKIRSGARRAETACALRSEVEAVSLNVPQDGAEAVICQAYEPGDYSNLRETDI
T2 sequence (P43140 whole entry): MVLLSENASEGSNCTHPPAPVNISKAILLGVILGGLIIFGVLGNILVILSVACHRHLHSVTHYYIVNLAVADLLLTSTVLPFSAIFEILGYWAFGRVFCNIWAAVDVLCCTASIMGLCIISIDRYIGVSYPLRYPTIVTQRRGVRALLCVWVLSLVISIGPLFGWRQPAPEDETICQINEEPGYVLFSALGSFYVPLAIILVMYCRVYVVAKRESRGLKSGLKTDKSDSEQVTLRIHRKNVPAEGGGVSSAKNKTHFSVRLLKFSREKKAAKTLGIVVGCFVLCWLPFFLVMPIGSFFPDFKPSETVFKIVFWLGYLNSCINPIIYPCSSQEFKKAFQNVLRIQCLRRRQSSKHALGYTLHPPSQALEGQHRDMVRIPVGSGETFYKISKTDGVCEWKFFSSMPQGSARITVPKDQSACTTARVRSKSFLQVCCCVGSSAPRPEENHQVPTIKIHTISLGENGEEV

Rattus norvegicus [3] = assay: Blood pressure lowering activity in spontaneously hypertensive rats (SHR) after 6 hours of administration (iv) of dose of 4.0 mg/kg […]; format: functional
Rattus norvegicus [4] = assay: Blood pressure lowering activity in spontaneously hypertensive rats (SHR) after 1 hour of administration (iv) of dose of 4.0 mg/kg […]; format: functional
Rattus norvegicus [5] = assay: Blood pressure lowering activity in spontaneously hypertensive rats (SHR) after 1 hour of administration (iv) of dose of 4.0 mg/kg; Did not last more than 1/2 hr […]; format: functional, organism-based; parameters: dose 4 mg/kg
Rattus norvegicus [6] = assay: Blood pressure lowering activity in spontaneously hypertensive rats (SHR) after 6 hour of administration (iv) of dose of 4.0 mg/kg; Did not last more than 1/2 hr […]; format: functional, organism-based; parameters: dose 4 mg/kg
Rattus norvegicus [7] = assay: Inhibitory concentration against 5-HT in conscious spontaneously […] rats (SHR); format: functional, organism-based
Rattus norvegicus [8] = assay: Inhibitory concentration against phenylephrine in conscious spontaneously […] rats (SHR); format: functional, organism-based
Rattus norvegicus [9] = assay: Blood pressure lowering activity in spontaneously hypertensive rats (SHR) after 6 hours of administration (iv) of dose of 0.5 mg/kg; format: functional
Rattus norvegicus [10] = assay: Blood pressure lowering activity in spontaneously hypertensive rats (SHR) after 6 hours of administration (iv) of dose of 1.0 mg/kg; format: functional
Rattus norvegicus [11] = assay: Blood pressure lowering activity in spontaneously hypertensive rats (SHR) after 1 hour of administration (iv) of dose of 0.5 mg/kg; format: functional
Rattus norvegicus [12] = assay: Blood pressure lowering activity in spontaneously hypertensive rats (SHR) after 1 hour of administration (iv) of dose of 1.0 mg/kg; format: functional
Rattus norvegicus [13] = assay: Blood pressure lowering activity in spontaneously hypertensive rats (SHR) after 6 hours of administration (iv) of dose of 4.0 mg/kg; Did not last more than 1/2 hr […]; format: functional, organism-based; parameters: dose 4 mg/kg
Rattus norvegicus [14] = assay: Blood pressure lowering activity in spontaneously hypertensive rats (SHR) after 6 hours of administration (iv) of dose of 0.5 mg/kg; Did not last more than 1/2 hr […]; format: functional, organism-based; parameters: dose 0.5 mg/kg
Rattus norvegicus [15] = assay: Blood pressure lowering activity in spontaneously hypertensive rats (SHR) after 1 hour of administration (iv) of dose of 0.5 mg/kg […]; format: functional
Rattus norvegicus [16] = assay: Blood pressure lowering activity in spontaneously hypertensive rats (SHR) after 1 hour of administration (iv) of dose of 0.5 mg/kg; Did not last more than 1/2 hr […]; format: functional, organism-based; parameters: dose 0.5 mg/kg
Rattus norvegicus [17] = assay: Blood pressure lowering activity in spontaneously hypertensive rats (SHR) after 6 hours of administration (iv) of dose of 0.5 mg/kg […]; format: functional
Rattus norvegicus [18] = assay: Blood pressure lowering activity in spontaneously hypertensive rats (SHR) after 6 hours of administration (iv) of dose of 2.0 mg/kg […]; format: functional
Rattus norvegicus [19] = assay: Blood pressure lowering activity in spontaneously hypertensive rats (SHR) after 1 hour of administration (iv) of dose of 2.0 mg/kg […]; format: functional

Ki [2]: > 100 nM
SMILES: O=C1Nc2ccccc2C2=NC(CN3CCN(Cc4ccc5c(c4)OCO5)CC3)CN12 (stereo not given)
MBP (Rattus norvegicus [5]): inactive
MBP (Rattus norvegicus [6]): inactive

IC50 (Rattus norvegicus [7]): 27.8 nM
IC50 (Rattus norvegicus [8]): 5.73 nM
SMILES: O=C(c1ccc(F)cc1)C1CCN(CCn2c(=O)[nH]c3ccccc3c2=O)CC1 [KETANSERIN]

Ki [1]: 3166 nM
Ki [2]: 1.1 nM
SMILES: O=C1Nc2ccccc2C2=NC(CN3CCN(c4ccccc4Cl)CC3)CN12 (stereo not given)
MBP (Rattus norvegicus [9]): -5.7 mmHg
MBP (Rattus norvegicus [10]): -12.6 mmHg
MBP (Rattus norvegicus [11]): -25.5 mmHg
MBP (Rattus norvegicus [12]): -40.7 mmHg

Ki [1]: 116 nM
Ki [2]: 0.11 nM
SMILES: COC1=Nc2ccccc2C2=NCC(CN3CCN(c4ccccc4Cl)CC3)N12 (stereo not given)
MBP (Rattus norvegicus [14]): inactive
MBP (Rattus norvegicus [15]): -28.3 mmHg

Ki [2]: 158 nM
SMILES: SC1=Nc2ccccc2C2=NC(CN3CCN(c4ccccc4)CC3)CN12 (stereo not given)
MBP (Rattus norvegicus [3]): -22.5 mmHg
MBP (Rattus norvegicus [4]): -33.9 mmHg

Ki [1]: 810 nM
Ki [2]: 0.068 nM
SMILES: CN1C(=O)N2C(=NCC2CN2CCN(c3ccccc3Cl)CC2)c2ccccc21 (stereo not given)
MBP (Rattus norvegicus [17]): -5.9 mmHg
MBP (Rattus norvegicus [18]): -14 mmHg
MBP (Rattus norvegicus [15]): -8.3 mmHg
MBP (Rattus norvegicus [19]): -24 mmHg

Second part, the compound before the results:

SMILES: COc1cc2c(cc1OC)C1=NC(CN3CCN(c4ccccc4)CC3)CN1C(=O)N2 (stereo not given)
Ki [1]: 1694 nM
Ki [2]: 30 nM
MBP (Rattus norvegicus [3]): -12.6 mmHg
MBP (Rattus norvegicus [4]): -38.2 mmHg

SMILES: COc1cccc(N2CCN(CC3CN4C(=O)Nc5ccccc5C4=N3)CC2)c1 (stereo not given)
MBP (Rattus norvegicus [3]): -8.5 mmHg
MBP (Rattus norvegicus [4]): -20.3 mmHg

SMILES: O=C1Nc2ccccc2C2=NC(CN3CCC(Cc4ccccc4)CC3)CN12 (stereo not given)
Ki [1]: 5011 nM
Ki [2]: 35.8 nM
MBP (Rattus norvegicus [13]): inactive
MBP (Rattus norvegicus [4]): -30.6 mmHg

SMILES: CN1C(=O)N2CC(CN3CCN(c4ccccc4)CC3)N=C2c2ccccc21 (stereo not given)
Ki [1]: 3334 nM
Ki [2]: 10.5 nM
MBP (Rattus norvegicus [14]): inactive
MBP (Rattus norvegicus [16]): inactive

SMILES: COC1=Nc2ccccc2C2=NCC(CN3CCN(c4ccccc4OC)CC3)N12 (stereo not given)
Ki [1]: 472 nM
Ki [2]: 0.07 nM
MBP (Rattus norvegicus [14]): inactive
MBP (Rattus norvegicus [15]): -17.2 mmHg

SMILES: COc1ccccc1N1CCN(CC2CN3C(=O)Nc4ccccc4C3=N2)CC1 (stereo not given)
Ki [1]: 3450 nM
Ki [2]: 1.3 nM
MBP (Rattus norvegicus [9]): -18.8 mmHg
MBP (Rattus norvegicus [11]): -20 mmHg

SMILES: O=C(c1ccc(F)cc1)C1CCN(CC2CN3C(=O)Nc4ccccc4C3=N2)CC1 (stereo not given)
MBP (Rattus norvegicus [3]): -13.8 mmHg
MBP (Rattus norvegicus [4]): -30 mmHg

SMILES: COc1ccc(N2CCN(CC3CN4C(=O)Nc5ccccc5C4=N3)CC2)cc1 (stereo not given)
Ki [2]: > 100 nM
MBP (Rattus norvegicus [5]): inactive
MBP (Rattus norvegicus [6]): inactive

SMILES: COc1ccccc1N1CCN(CC2CN=C3c4ccccc4NC(=O)N32)CC1 (stereo not given)
Ki [1]: 593 nM
Ki [2]: 0.21 nM
MBP (Rattus norvegicus [14]): inactive
MBP (Rattus norvegicus [16]): inactive
